Test system: bovine sperm
Assay: Bovine sperm motility by CASA analysis (VCL, total motility) after 24 h in capacitation medium
Format: cell-based
Details: 24 h in capacitation medium at 37° C., vs control
Experimental: For motility, sperm were incubated with 0.2, 0.5, 1 and 5 μM clofilium diluted in the capacitation medium for 24 hours at 37° C. under saturated humidity. Sperm motility was measured using Computer Assisted Semen Analysis (CASA analysis). The CASA analysis was performed using a CEROS™, Hamilton Thorne Bioscience, USA. VCL (curvilinear velocity) was then measured. 2. The viability of the capacitated sperm was determined by the measurement of the sperm motility. The motility analysis was carried out as in Example 1.3. The first results are shown in FIGS. 6A and 6B, which illustrates the motility (in terms of VCL, in μm/s), i.e. the sperm velocity, sperm being incubated 24 h in a capacitation medium prior CASA, for each of the solutions tested: control (“[0 μM]”), 0.2 μM clofilium (“[0.2 μM]”), 0.5 μM clofilium (“[0.5 μM]” or “[0.5]”), 1 μM clofilium (“[1 μM]” or “[1]”) and 5 μM clofilium (“[5 μM]” or “[5]”) (FIG. 6A) and which illustrates the total motility (%), for each of the solutions tested “[0μM ]”, “[0.2 μM]” (or “[0.2]”), “[0.5 μM ]” (or “[0.5]”), “[1 μM ]” (or “[1]”) and “[5 μM ]” (or “[5]”) (FIG. 6B). As known to the skilled person, the “total motility”indicates the overall percentage of sperm that are moving in any direction (VAP>1μm/s).

Measured: motility (in terms of VCL), sperm velocity

CCCCCCC[N+](CC)(CC)CCCCc1ccc(Cl)cc1 [clofilium]
higher velocity than the non-treated: 0.2 μM clofilium | 0.5 μM clofilium | 1 μM clofilium
